Measurements: US20240392241A1, “METHOD FOR PRODUCING CELL MASS INCLUDING PITUITARY TISSUE AND CELL MASS” (SUMITOMO CHEMICAL COMPANY, LIMITED, priority 2021, published 2024)

Columns and labels:
[1] = test system: human iPS cells (201B7 strain); test: Immunostaining of Pitx1, Lhx3 and E-cadherin in cell aggregates on day 29 (Example 3); format: cell-based; conditions: 1 μM from day 0
Procedure: In Example 3, according to step shown in FIG. 3A, a cell population including cells that constitute pituitary tissue was produced. Specifically, human iPS cells (201B7 strain, obtained from Kyoto University) were cultured under feeder-free conditions according to the method described in Scientific Reports, 4, 3594 (2014). As the feeder-free medium, StemFit medium was used and, as the feeder-free scaffold, Laminin 511-E8 was used.
The aforementioned subconfluent human iPS cells were subjected to cell dispersion treatment using TrypLE Select, and further dispersed to single cells by pipetting operation. Thereafter, the aforementioned […] dispersed into single cells were suspended in 100 μl of a serum-free medium at 9000 cells per well of a non-cell-adhesive 96-well culture plate, and suspension cultured under the conditions of 37° C., 5% CO2. […]
The aforementioned cell aggregates on the 29th day after the start of differentiation induction were each fixed with 4% para-formaldehyde, and cryosections were prepared. […] After the primary antibody reaction, detection was performed using a secondary antibody (manufactured by Life Technologies) fluorescence-labeled with Alexa488, 555, and 647. […]

[2] = test system: cell mass derived from human iPS cell line 201B7; test: ACTH concentration in culture medium of cell masses by ELISA (Example 4); format: cell-based; conditions: for ACTH concentration in the medium compared with JNK inhibitor non-addition conditions: 1 μM from day 0; for ACTH concentration in the medium vs non-addition condition: 3 μM
Procedure: In Example 4, according to step shown in FIG. 4A, a cell population including cells that constitute pituitary tissue was produced. Specifically, the culture supernatant of a cell mass derived from human iPS cell line 201B7 prepared by the method described in Example 3 was collected over time, and the amount of ACTH secreted per cell mass was measured. As a specific measurement method, cell masses containing pituitary tissue were prepared under four conditions: from day 0 to day 30 of differentiation induction, conditions in which the JNK inhibitor JNK—IN-8 was added at 1 μM, 3 μM, or 10 μM, and no addition control. […] Thereafter, the cell masses prepared by adding 1 μM or 3 μM of JNK—IN-8 and the non-addition control were suspension cultured in a 10 cm dish with 20 ml of medium, and half of the medium was replaced every 3 to 4 days. The culture supernatant was collected before replacement of a half-volume of the medium on days 61, 103, 152, and 201 of differentiation induction, and frozen at −150° C. When all samples were collected, the ACTH concentration in the recovered medium was measured by the ELISA method used in clinical testing (testing outsourced to SRL, Ltd.). Based on the obtained ACTH concentration data (pg/mL), the total number of cell masses at the time of sampling and the total amount of culture medium were corrected to the ACTH concentration under the conditions where 20 cell masses were cultured in 20 ml of medium, and shown in a graph. A similar experiment was performed twice.
As a result, the ACTH concentration in the medium was about 5 times as high on day 61 of differentiation induction, about 2 times as high on days 103 and 152 of differentiation induction, and about 1.3 times as high on day 201 of differentiation induction under the conditions in which 1 μM JNK—IN-8 was added from day 0 of differentiation induction, compared with the JNK inhibitor non-addition conditions. Under the conditions in which 3 μM JNK—IN-8 was added, the ACTH concentration in the medium was higher on days 61 and 103 of differentiation induction than that in the non-addition condition, but lower on days 152 and 201 of differentiation induction than that in the non-addition condition. From the above results, it was shown that the addition of a JNK inhibitor improves the ACTH secretory capacity per cell mass in differentiation induction of pituitary tissue from pluripotent stem cells, and that the concentration of the JNK inhibitor to be added is preferably not more than 3 μM (FIG. 4B).

state of cell mass ([2]; 10 μM added from day 0 to day 30 of differentiation induction): collapse of cell mass
SMILES: Cc1cc(NC(=O)c2cccc(NC(=O)/C=C/CN(C)C)c2)ccc1Nc1nccc(-c2cccnc2)n1 [JNK—IN-8, (E)-3-(4-(dimethylamino)but-2-enamido)-N-(3-methyl-4-((4-(pyridin-3-yl)pyrimidin-2-yl)amino)phenyl)benzamide]
number of cells positive for Pitx1 and Lhx3 vs non-addition control [1]: higher | proportion of the surface of the cell mass covered with E-Cadherin-positive epithelial tissue vs non-addition control [1]: higher | ACTH concentration in the medium compared with JNK inhibitor non-addition conditions ([2]; day 61 of differentiation induction): about 5 times | ACTH concentration in the medium compared with JNK inhibitor non-addition conditions ([2]; day 201 of differentiation induction): about 1.3 times | ACTH concentration in the medium compared with JNK inhibitor non-addition conditions ([2]; days 103 and 152 of differentiation induction): about 2 times | ACTH concentration in the medium vs non-addition condition ([2]; days 61 and 103 of differentiation induction): higher | ACTH concentration in the medium vs non-addition condition ([2]; days 152 and 201 of differentiation induction): lower
